In general, EC50 refers to the concentration that produces a half-maximal response. Low readings indicate higher potency in that assay, high ones lower potency in that assay.

This is an account of results in patent publication US12441710B2, “Substituted piperidino compounds and related methods of treatment” (Alkermes, Inc., priority 2020, dated 2025).

The first series addresses T1, human orexin-2 receptor (OX2R) (Homo sapiens, UniProt O43614).
T1 construct: expressed in transfected cells
T1 sequence (O43614 1-444): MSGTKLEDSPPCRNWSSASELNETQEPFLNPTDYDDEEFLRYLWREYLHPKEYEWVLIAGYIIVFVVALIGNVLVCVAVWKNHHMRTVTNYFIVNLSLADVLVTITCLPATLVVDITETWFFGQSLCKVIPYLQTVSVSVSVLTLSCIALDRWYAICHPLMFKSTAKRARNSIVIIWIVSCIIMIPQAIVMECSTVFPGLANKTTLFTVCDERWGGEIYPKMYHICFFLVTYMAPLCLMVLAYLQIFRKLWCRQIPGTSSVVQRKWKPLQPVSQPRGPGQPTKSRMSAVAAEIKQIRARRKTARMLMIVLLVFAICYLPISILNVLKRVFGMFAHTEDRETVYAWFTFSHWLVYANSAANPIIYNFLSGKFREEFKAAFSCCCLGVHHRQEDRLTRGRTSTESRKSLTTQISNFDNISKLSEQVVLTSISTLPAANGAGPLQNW
The series is described as follows: Human OX2R IP1 assay. The note with it: T-Rex CHO cells stably overexpressing human OX2R; IP1 accumulation, 1 hr at 37 degrees C. Format: cell-based. Here is the method: T-Rex CHO cells stably overexpressing the human orexin-2 receptor (OX2R) were induced overnight with 1 μg/mL of doxycycline in a T225 flask. 24 hours post induction, cells were lifted with accutase and plated into a 384-well proxy plate at 30,000 cells/well. Cells were then treated with different test compounds in 1× stimulation buffer containing 10 mM Hepes, 1 mM CaCl2), 0.5 mM MgCl2, 4.2 mM KCl, 146 mM NaCl, 5.5 mM glucose, and 50 mM LiCl, pH 7.4, for 1 hr at 37 degrees C. Following incubation, the reaction was terminated by the addition of detection mix, which is composed of IP1-d2 and anti-IP1-cryptate diluted in lysis buffer as well as 1× stimulation buffer. The plates were allowed to incubate for 1 hour at room temperature and were then read in the EnVision® multimode plate reader, measuring inositol phosphate levels.
Cisbio IP1 is a cell-based functional assay quantifying the accumulation of inositol monophosphate (IP), a metabolite released as a result of orexin 2 receptor activation through the phospholipase C-Gq signaling pathway. This is a competitive immunoassay in which the IP1 produced by the cells upon receptor activation competes with the IP1 analog coupled to the d2 fluorophore (acceptor) for binding to an anti-IP1 monoclonal antibody labeled with Eu cryptate (donor). The measured HTRF-FRET based signal is inversely proportional to the IP1 concentration produced.
The EC50 values reported in Table 2 were obtained according to the human OX2R IP1 assay described above. Data are the mean EC50 values±S.E.M. The compound methyl (2R,3S)-3-((methylsulfonyl)amino)-2-(((cis-4-phenylcyclohexyl)oxy)methyl)-piperidine-1-carboxylate (sometimes referred to herein as Reference Compound A) is a reference compound which is disclosed in Example 5 of PCT publication no. WO2017/135306.
The compound `CS(=O)(=O)N[C@H]1CCN(c2ccccn2)C[C@H]1CO[C@H]1CC[C@@H](c2cccc(C#N)c2)CC1` [Compound 35] gave an EC50 of less than 100 nM.
For `CS(=O)(=O)N[C@H]1CCN(c2ncccc2F)C[C@H]1CO[C@H]1CC[C@@H](c2ccccc2)CC1` [Compound 26], the EC50 is less than 100 nM.
Take `CS(=O)(=O)N[C@H]1CCN(c2ccccn2)C[C@H]1CO[C@H]1CC[C@@H](c2ccc(F)cc2)CC1` [Compound 7]: the EC50 was less than 100 nM.
As to `CS(=O)(=O)N[C@H]1CCN(c2ccccn2)C[C@H]1CO[C@H]1CC[C@@H](c2ccnnc2)CC1` [Compound 13], the EC50 is greater than 1000 nM.
In turn, `CS(=O)(=O)N[C@H]1CCN(c2ccccn2)C[C@H]1CO[C@H]1CC[C@@H](c2cnccn2)CC1` [Compound 9] had an EC50 greater than 1000 nM.
As to `CS(=O)(=O)N[C@H]1CCN(c2ccncn2)C[C@H]1CO[C@H]1CC[C@@H](c2ccccc2)CC1` [Compound 20], the concentration for a half-maximal effect (EC50) is less than 100 nM.
On the same count and under the same terms, under `CS(=O)(=O)N[C@H]1CCN(c2ccc(F)cn2)C[C@H]1CO[C@H]1CC[C@@H](c2ccccc2)CC1` [Compound 24] stands less than 100 nM; under `CS(=O)(=O)N[C@H]1CCN(c2nccc3ncnn23)C[C@H]1CO[C@H]1CC[C@@H](c2ccccc2)CC1` [Compound 44], 100 to 1000 nM.
As for `CS(=O)(=O)N[C@H]1CCN(c2ccccn2)C[C@H]1CO[C@H]1CC[C@@H](c2ccncc2)CC1` [Compound 4], the EC50 is less than 100 nM.
As to `CS(=O)(=O)N[C@H]1CCN(c2ccccn2)C[C@H]1CO[C@H]1CC[C@@H](c2cncnc2)CC1` [Compound 12], the EC50 was greater than 1000 nM.
Still for that read-out and setting: under `CS(=O)(=O)N[C@H]1CCN(c2ccccn2)C[C@H]1CO[C@H]1CC[C@@H](c2ccccc2O)CC1` [Compound 30] stands 100 to 1000 nM; under `C[C@@]1(CO[C@H]2CC[C@@H](c3ccccc3)CC2)CN(c2ccccn2)CC[C@@H]1NS(C)(=O)=O` [Compound 29], less than 100 nM; under `CS(=O)(=O)N[C@H]1CCN(Cc2ccccc2)C[C@H]1CO[C@H]1CC[C@@H](c2ccccc2)CC1` [Compound 36], greater than 1000 nM.
Turning to `CS(=O)(=O)N[C@H]1CCN(c2ccccn2)C[C@H]1CO[C@H]1CC[C@@H](c2ccncn2)CC1` [Compound 8], the EC50 was greater than 1000 nM.
Compound `CS(=O)(=O)N[C@H]1CCN(c2ccccn2)C[C@H]1CO[C@H]1CC[C@@H](c2ncccn2)CC1` [Compound 11] showed an EC50 greater than 1000 nM.
On the same count and under the same terms, under `CS(=O)(=O)N[C@H]1CCN(c2nccc3ocnc23)C[C@H]1CO[C@H]1CC[C@@H](c2ccccc2)CC1` [Compound 45] stands less than 100 nM.
The compound `CS(=O)(=O)N[C@H]1CCN(Cc2ccccn2)C[C@H]1CO[C@H]1CC[C@@H](c2ccccc2)CC1` [Compound 39] had an EC50 greater than 1000 nM.
`Cc1cc(C)cc([C@H]2CC[C@@H](OC[C@@H]3CN(c4ccccn4)CC[C@@H]3NS(C)(=O)=O)CC2)c1` [Compound 18] returned an EC50 of less than 100 nM.
Still for that read-out and setting: under `CS(=O)(=O)N[C@H]1CCN(c2ccccn2)C[C@H]1CO[C@H]1CC[C@@H](c2ccccc2F)CC1` [Compound 5] stands less than 100 nM.
Regarding `Cc1cccc([C@H]2CC[C@@H](OC[C@@H]3CN(c4ccccn4)CC[C@@H]3NS(C)(=O)=O)CC2)c1C` [Compound 17], the EC50 was less than 100 nM.
In the case of `Cc1ccccc1[C@H]1CC[C@@H](OC[C@@H]2CN(c3ccccn3)CC[C@@H]2NS(C)(=O)=O)CC1` [Compound 15], the EC50 is less than 100 nM.
With `CS(=O)(=O)N[C@H]1CCN(c2cccc(F)n2)C[C@H]1CO[C@H]1CC[C@@H](c2ccccc2)CC1` [Compound 23], the EC50 is less than 100 nM.
`CS(=O)(=O)N[C@H]1CCN(c2ccccn2)C[C@H]1CO[C@H]1CC[C@@H](c2cccc(O)c2)CC1` [Compound 31] gave a concentration giving a half-maximal response (EC50) of less than 100 nM.
Take `Cc1cccc([C@H]2CC[C@@H](OC[C@@H]3CN(c4ccccn4)CC[C@@H]3NS(C)(=O)=O)CC2)c1` [Compound 16]: the EC50 was less than 100 nM.
Still for that read-out and setting: the result for `CS(=O)(=O)N[C@H]1CCN(c2cccnn2)C[C@H]1CO[C@H]1CC[C@@H](c2ccccc2)CC1` [Compound 22] reads less than 100 nM; that for `CS(=O)(=O)N[C@H]1CCN(Cc2cccnc2)C[C@H]1CO[C@H]1CC[C@@H](c2ccccc2)CC1` [Compound 40], greater than 1000 nM.
`CS(=O)(=O)N[C@H]1CCN(c2cccc3ccnn23)C[C@H]1CO[C@H]1CC[C@@H](c2ccccc2)CC1` [Compound 42] came in with an EC50 greater than 1000 nM.
Still for that read-out and setting: the result for `CS(=O)(=O)N[C@H]1CCN(Cc2ccncc2)C[C@H]1CO[C@H]1CC[C@@H](c2ccccc2)CC1` [Compound 41] reads greater than 1000 nM.
`CS(=O)(=O)N[C@H]1CCN(c2cccc3ncnn23)C[C@H]1CO[C@H]1CC[C@@H](c2ccccc2)CC1` [Compound 43]: the concentration for a half-maximal effect (EC50) is greater than 1000 nM.
On the same count and under the same terms, the result for `CS(=O)(=O)N[C@H]1CCN(c2ccccn2)C[C@H]1CO[C@H]1CC[C@@H](c2ccccc2)CC1` [Compound 10] reads less than 100 nM.
The compound `CS(=O)(=O)N[C@H]1CCN(c2cnccn2)C[C@H]1CO[C@H]1CC[C@@H](c2ccccc2)CC1` [Compound 21] returned a 50% effective concentration (EC50) of less than 100 nM.
Take `CS(=O)(=O)N[C@H]1CCN(c2ncccn2)C[C@H]1CO[C@H]1CC[C@@H](c2ccccc2)CC1` [Compound 19]: the EC50 was less than 100 nM.
Consider `CS(=O)(=O)N[C@H]1CCN(c2ncccc2O)C[C@H]1CO[C@H]1CC[C@@H](c2ccccc2)CC1` [Compound 27], for which the 50% effective concentration (EC50) is less than 100 nM.
`CS(=O)(=O)N[C@H]1CCN(c2ccccn2)C[C@H]1CO[C@H]1CC[C@@H](c2cccnn2)CC1` [Compound 14] yielded an EC50 greater than 1000 nM.
In turn, `CS(=O)(=O)N[C@H]1CCN(c2ncccc2C(F)(F)F)C[C@H]1CO[C@H]1CC[C@@H](c2ccccc2)CC1` [Compound 28] gave a half-maximal effective concentration (EC50) of less than 100 nM.
In turn, `CS(=O)(=O)N[C@H]1CCN(c2ccccn2)C[C@H]1CO[C@H]1CC[C@@H](c2cccnc2)CC1` [Compound 3] showed an EC50 of less than 100 nM.
On the same count and under the same terms, the result for `CS(=O)(=O)N[C@H]1CCN(c2ccccn2)C[C@H]1CO[C@H]1CC[C@@H](c2ccc(O)cc2)CC1` [Compound 32] reads less than 100 nM; that for `CS(=O)(=O)N[C@H]1CCN(c2ccccn2)C[C@H]1CO[C@H]1CC[C@@H](c2ccccn2)CC1` [Compound 2], less than 100 nM; that for `CS(=O)(=O)N[C@H]1CCN(c2ccccn2)C[C@H]1CO[C@H]1CC[C@@H](c2cccc(C(F)(F)F)c2)CC1` [Compound 33], 100 to 1000 nM.

Test system in another series: not listed separately
The series is described as follows: Hepatocytes stability assay (human hepatocytes). The format is in vitro ADME. To be noted: both sexes, cryopreserved hepatocytes, 1 μM test compound, 1×10^6 cell/mL, read-out: CLint (μL/min/million cells). Here is the method: (§1) In vitro metabolic stability was assessed using cryopreserved hepatocytes from male Sprague Dawley rats and a pool of 50 mixed gender humans (BioIVT, Baltimore, MD). The incubation mixtures were prepared by mixing 250 μL of pre-warmed KHB (Krebs-Henseleit buffer) containing 2×10^6 cell/mL of hepatocytes with 250 μL of pre-warmed KHB buffer containing 2 μM of test compounds in a 48-well plate, giving a final concentration of 1 μM test compound (0.1% DMSO) and 1×10^6 cell/mL of hepatocytes. The reaction mixture was incubated at 37 degrees C. A 50 μL aliquot of incubation mixture was taken at time points (0, 15, 30, 60, 120 and 240 minutes) and transferred into a 96-well plate containing 300 μL ice-cold acetonitrile (containing 30 ng/mL of labetalol and 10 ng/mL of Naltrexone-d3 as internal standards) and immediately placed in ice to terminate the reaction. Samples were centrifuged, and supernatants were transferred into 96-well plates for liquid chromatography with tandem mass spectrometry (LC-MS/MS) analysis to monitor the depletion of the test compound. Data was calculated as percent remaining by assuming zero-minute time point peak area ratio (analyte/IS) as 100% and dividing remaining time point peak area ratios by zero-minute time point peak area ratio. Data were fitted to a first-order decay model to determine half-life. From a plot of log (ln) peak area against time, the slope of the line was determined. Subsequently, half-life (T1/2) and intrinsic clearance (CLint) were calculated using the equations below: • Elimination rate constant (k)=(−slope) • Half-life (T1/2) min=0.693/k • Intrinsic Clearance (CLint) (mL/min/million cells)=(V×0.693)/T1/2 • V=incubation volume mL/number of cells The in vitro T1/2 was converted to in vitro intrinsic clearance (CLint,hep) in units of mL/min/kg using the formula shown below: The in vitro intrinsic clearance (CLint,hep) was scaled to in vivo hepatic clearance (CL,hep) using the following equation which was adapted from a well-stirred model. [formula] where Q is the liver blood flow and fu is the fraction unbound (assumed to be unity in this case). All parameters used in the calculation are shown below (Table 4). The extraction ratio (ER) was calculated by dividing the hepatic clearance of a compound to the liver blood flow. The data reported in Table 5 were obtained according to the human hepatocytes stability assay described above.
`CS(=O)(=O)N[C@H]1CCN(c2ccccn2)CC1COC1CCC(c2ccccn2)CC1` (some centres unmarked) [Compound 2]: the hepatocyte CLint at 1 μM came out at 53 µL/min/1e6 cells.

A further series relates to human hepatocytes. The series is described as follows: Hepatocytes stability assay (human hepatocytes). The format is in vitro ADME. The note with it: hepatic clearance divided by liver blood flow, fu assumed unity. On the procedure:
as §1
For `CS(=O)(=O)N[C@H]1CCN(c2ccccn2)CC1COC1CCC(c2ccccn2)CC1` (some centres unmarked) [Compound 2], the “Extraction Ratio (ER)” value came out at 0.89.
